Test results: patent US8486434B2, “Medical implant containing an antioxidative substance” (Biotronik VI Patent AG, priority 2009, dated 2013)

Assay: toxicity of isoprenoids (compatibility with the body)
Settings: in concentrations of 10 μmol/l
From the text: Thus, for example, lycopene and ubichinon are already toxic in concentrations of 10 μmol/l. Squalene, on the other hand, is not toxic, even in concentrations of 100 μmol/l.

With ubichinon the toxicity was “toxic”.
